Laboratory results as given in patent publication US4122184A, “Benzimidazole insecticides” (priority 1977, dated 1978).
“And” between values parts separate entries of the source, which are not always exact repeats. Equal values may be shown once.

Columns and labels:
Boll Weevil = Boll Weevil Test; type: in vivo, Anthonomus grandis (Coleoptera); conditions: 48 h
Text: The procedure is identical to that employed for the Mexican bean beetle and the Southern armyworm, except that 10 adult boll weevils are placed on cotton leaves that have been dipped into formulations of the test compounds. The same rating scale is used.

[1] = test system: Striped Cucumber Beetle Adults; assay: Field trial, stomach poison test; type: in vivo; parameters: key: mortality rating on a 0 to 9 scale
How it was run: (§1)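 Leaves from infested host plants were sprayed (atomizer, 10 psi) or dipped in compound solutions at several concentrations, air-dried, then placed in Petri dishes with five or ten insects each. One or two replicates, usually two or three rates; mortality read at 24, 48 and 72 h on a 0–9 scale.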

House Fly = assay: Housefly (Stomach) Test; type: in vivo, Musca domestica (Diptera); conditions: 24 h
Method: Ten chilled house flies are taken from the rearing cage and placed in a covered petri dish. Sugar cubes treated with 0.2 ml. of a formulation containing a specified level of the insecticide are placed in the petri dish one hour after the flies have been removed from the chill room. Controls consist of sugar cubes treated with 0.2 ml. of deionized water and cubes treated with 0.2 ml. of a formulation containing 500 ppm of malathion. Mortality counts are made 24 hours later. The same rating scale is used as before.

Mexican Bean Beetle = Mexican Bean Beetle Test; type: in vivo, Epilachna varivestis (Coleoptera); conditions: 48 h
Method: Cuttings of four six-day old Bountiful snap bean plants containing two leaves with approximately 5 square inches of leaf surface, are placed in water. The leaves are sprayed to wetting with about 5-10 ml. of a formulation containing a pre-determined level of the test compound. Half of the formulation is sprayed on the top surface and half on the bottom surface of the leaf using a DeVilbiss atomizer at 10 psi held at a distance of about 18 inches from the leaf. After the leaves have dried, they are cut from the stem and placed separately in petri dishes. Ten third instar, nonmolting Mexican bean beetle larvae grown on Bountiful snap beans are placed on each leaf. Controls consist of two leaves sprayed with 5 ml. of a 500 ppm malathion formulation (reference standard), two leaves sprayed with the formulation without the active ingredient and two leaves are held as untreated controls. After 48 hours, a mortality count is made and the amount of feeding noted. Moribund larvae are counted as dead.

Alfalfa Weevil Larvae [2] = assay: Field trial, topical application; type: in vivo
Method: The results are read at 24, 48, and 72 hours when applicable. The rating scale is 0 to 9 where 0 = 0-10 percent and 9 = 91-100 percent mortality.
In a variation of the above test, 1 microliter of a test solution containing a predetermined number of micrograms of benzimidazole was applied directly to larvae or adult insects.
Using the above methods, field trials were carried out against species of 5 orders of insects. The results, which are summarized in the following tables, give the average mortality for the particular insect with a given benzimidazole for each concentration employed. […] These tables contain all results obtained during the summer trials.

Aphids - Tulip Tree = assay: Field trial, stomach poison test; type: in vivo
How it was run: as §1

Meadow Spittlebug = assay: Field trial, stomach poison test; type: in vivo
How it was run: as §1

Aphids - Apple = assay: Field trial, stomach poison test; type: in vivo
How it was run: as §1

Alfalfa Weevil Larvae [3] = assay: Field trial, stomach poison test; type: in vivo
How it was run: as §1

[4] = test system: Potato Flea Beetle Adults; assay: Field trial, stomach poison test; type: in vivo
How it was run: as §1

[5] = test system: Southern Corn Rootworm Adults; assay: Field trial, stomach poison test; type: in vivo; parameters: key: mortality rating on a 0 to 9 scale
How it was run: as §1

Aphids - Sour Gum = assay: Field trial, stomach poison test; type: in vivo
How it was run: as §1

Yellow Mealworm Larvae = assay: Field trial, topical application; type: in vivo; parameters: key: 0 = 0-10% mortality, 9 = 91-100% mortality (0-9 scale)
How it was run: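 1 μL benzimidazole solution of set microgram content applied topically to larvae or adults. Mortality read at 24, 48 and 72 h where applicable, rated 0-9 (0 = 0-10%, 9 = 91-100%); values are average mortality per concentration.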

Row | Compound | mortality rating (Boll Weevil; 10 ppm) | mortality rating (Boll Weevil; 25 ppm) | mortality rating (Boll Weevil; 50 ppm) | mortality rating (Boll Weevil; 100 ppm) | mortality rating (Boll Weevil; 250 ppm) | mortality rating (Boll Weevil; 500 ppm) | mortality rating (Boll Weevil; 1000 ppm) | average mortality rating ([1]; 10 ppm) | average mortality rating ([1]; 25 ppm) | average mortality rating ([1]; 50 ppm) | average mortality rating ([1]; 100 ppm) | mortality rating (Mexican Bean Beetle; 25 ppm) | mortality rating (Mexican Bean Beetle; 50 ppm) | mortality rating (Mexican Bean Beetle; 100 ppm) | mortality rating (Mexican Bean Beetle; 250 ppm) | mortality rating (Mexican Bean Beetle; 500 ppm) | mortality rating (Mexican Bean Beetle; 1000 ppm) | average mortality rating ([5]; 25 ppm) | average mortality rating ([5]; 50 ppm) | average mortality rating ([5]; 100 ppm) | other results
1 | mixture of N,N-dimethyl-4-nitro-2,6-bis(trifluoromethyl)thio-1-benzimidazolecarboxamide and N,N-dimethyl-7-nitro-2,5-bis(trifluoromethyl)thio-1-benzimidazolecarboxamide [P] | 1.5 | 5 (51-60) | 8 (81-90) | 9 (91-100) | 9 (91-100) | 9 (91-100) | 9 (91-100) | 5 | 4 | 5 | 9 (91-100 percent mortality) | 0 (0-10) | 4.5 | 7 (71-80) | 7.5 | 8.5 | 9 (91-100) |  |  |  | mortality rating (House Fly; 50 ppm): 0 (0-10); mortality rating (House Fly; 100 ppm): 3 (31-40); mortality rating (House Fly; 250 ppm): 7 (71-80); mortality rating (House Fly; 500 ppm): 9 (91-100); mortality rating (Mexican Bean Beetle; 10 ppm): 0 (0-10)
2 | CC(C)OC(=O)n1c(C(F)(F)F)nc2c([N+](=O)[O-])cc(C(F)(F)F)cc21 [I, isopropyl 2,6-bis(trifluoromethyl)-4-nitro-1-benzimidazolecarboxylate] |  | 8.5 | 8.5 | 7.5 |  |  |  | 2 | 3 | 6 | 9 (91-100 percent mortality) | 6.5 |  |  |  |  |  |  |  |  | average mortality rating (Alfalfa Weevil Larvae [2]; 0.03 μg/μl): 1; average mortality rating (Alfalfa Weevil Larvae [2]; 0.07 μg/μl): 1; average mortality rating (Alfalfa Weevil Larvae [2]; 0.1 μg/μl): 3; average mortality rating (Aphids - Tulip Tree; 25 ppm): 5; average mortality rating (Aphids - Tulip Tree; 50 ppm): 5; average mortality rating (Aphids - Tulip Tree; 100 ppm): 5; average mortality rating (Meadow Spittlebug; 10 ppm): 2; average mortality rating (Meadow Spittlebug; 25 ppm): 5; average mortality rating (Meadow Spittlebug; 50 ppm): 3; average mortality rating (Aphids - Apple; 25 ppm): 1; average mortality rating (Aphids - Apple; 50 ppm): 5; average mortality rating (Aphids - Apple; 100 ppm): 9 (91-100 percent mortality); average mortality rating (Alfalfa Weevil Larvae [3]; 125 ppm): 8; average mortality rating (Alfalfa Weevil Larvae [3]; 250 ppm): 4; average mortality rating (Alfalfa Weevil Larvae [3]; 500 ppm): 6; average mortality rating ([4]; 10 ppm): 6; average mortality rating ([4]; 25 ppm): 8; average mortality rating ([4]; 50 ppm): 8; average mortality rating ([4]; 100 ppm): 9 (91-100 percent mortality)
3 | O=[N+]([O-])c1cc(C(F)(F)F)cc2[nH]c(C(F)(F)Cl)nc12 [L, 2-chlorodifluoromethyl-4-nitro-6-trifluoromethylbenzimidazole] | .5 | 1.5 |  |  |  |  |  |  |  |  |  |  | 8.5 |  |  |  |  | 1 | 4 | 6 | mortality rating (House Fly; 50 ppm): .5; average mortality rating (Aphids - Tulip Tree; 25 ppm): 1; average mortality rating (Aphids - Tulip Tree; 50 ppm): 1; average mortality rating (Aphids - Tulip Tree; 100 ppm): 5; average mortality rating (Meadow Spittlebug; 25 ppm): 0 (0-10 percent); average mortality rating (Meadow Spittlebug; 50 ppm): 1; average mortality rating (Meadow Spittlebug; 100 ppm): 5; average mortality rating (Aphids - Apple; 25 ppm): 1; average mortality rating (Aphids - Apple; 50 ppm): 1; average mortality rating (Aphids - Apple; 100 ppm): 4; average mortality rating (Aphids - Sour Gum; 25 ppm): 7; average mortality rating (Aphids - Sour Gum; 50 ppm): 7; average mortality rating (Aphids - Sour Gum; 100 ppm): 9 (91-100 percent mortality); average mortality rating (Yellow Mealworm Larvae; 0.03 μg/μl): 5; average mortality rating (Yellow Mealworm Larvae; 0.07 μg/μl): 5; average mortality rating (Yellow Mealworm Larvae; 0.15 μg/μl): 9 (91-100 percent mortality)
4 | mixture of phenyl 2,6-bis(trifluoromethyl)-4-nitro-1-benzimidazolecarboxylate and phenyl 2,5-bis(trifluoromethyl)-1-benzimidazolecarboxylate | 1 (11-20) | 5.5 | 8 (81-90) | 9 (91-100) | 9 (91-100) | 9 (91-100) | 9 (91-100) | 3 | 4 | 4 | 7 | 3 (31-40) | 7 (71-80) | 9 (91-100) | 9 (91-100) | 9 (91-100) | 9 (91-100) | 2 and 3 | 4 and 2 | 6 and 8 | mortality rating (House Fly; 100 ppm): 0 (0-10); mortality rating (House Fly; 1000 ppm): 9 (91-100); mortality rating (Mexican Bean Beetle; 10 ppm): 4 (41-50); average mortality rating (Yellow Mealworm Larvae; 0.03 μg/μl): 3; average mortality rating (Yellow Mealworm Larvae; 0.07 μg/μl): 3; average mortality rating (Yellow Mealworm Larvae; 0.15 μg/μl): 6
5 | mixture of benzyl 2,6-bis(trifluoromethyl)-4-nitro-1-benzimidazolecarboxylate and benzyl 2,5-bis(trifluoromethyl)-7-nitro-1-benzimidazolecarboxylate | 4.5 | 8.5 | 7 (71-80) | 9 (91-100) | 9 (91-100) | 9 (91-100) | 9 (91-100) | 4 | 4 | 5 | 7 |  | 9 (91-100) | 9 (91-100) | 9 (91-100) | 9 (91-100) | 9 (91-100) | 1 | 2 | 4 | average mortality rating (Alfalfa Weevil Larvae [2]; 0.03 μg/μl): 2; average mortality rating (Alfalfa Weevil Larvae [2]; 0.07 μg/μl): 1; average mortality rating (Alfalfa Weevil Larvae [2]; 0.1 μg/μl): 4; mortality rating (House Fly; 250 ppm): 0 (0-10); mortality rating (House Fly; 500 ppm): 4 (41-50); mortality rating (House Fly; 1000 ppm): 9 (91-100); average mortality rating (Alfalfa Weevil Larvae [3]; 125 ppm): 3; average mortality rating (Alfalfa Weevil Larvae [3]; 250 ppm): 5; average mortality rating (Alfalfa Weevil Larvae [3]; 500 ppm): 6; average mortality rating (Yellow Mealworm Larvae; 0.03 μg/μl): 1; average mortality rating (Yellow Mealworm Larvae; 0.07 μg/μl): 4; average mortality rating (Yellow Mealworm Larvae; 0.15 μg/μl): 5
